Data published in paper PMC13164762, “Development and Validation of an LC-MS/MS Method for the Quantitation of JNJ-64619178 (JNJ) in Mouse Plasma: Characterization of In Vitro and In Vivo Pharmacokinetic Properties” (Molecules, 2026).
Like-named read-outs stand apart in the source and are kept apart here.

What was measured:
[1] = Rapid equilibrium dialysis (RED) plasma protein binding; format: in vitro ADME; conditions: for fraction unbound at 5 h: mouse, plasma
Procedure: A rapid equilibrium dialysis (RED) protein binding assay was performed to determine the protein binding of JNJ in plasma and brain matrix. The RED plate was obtained from Thermo Fisher Scientific (Frederick, MD, USA) for the experiment. An aliquot (200 µL) of JNJ spiked plasma/brain homogenate was poured into the donor chamber, and 400 µL dialysis buffer-PBS containing 100 mM sodium phosphate and 150 mM sodium chloride was added into the receiver compartment of each RED insert in triplicate. The plate was kept in incubation for 5 h on the orbital shaker at 37 °C. Following incubation, 50 µL plasma and buffer aliquots were collected separately, and an equal volume of opposite matrix was added. Collected samples were processed as previously described in Section 4.6 and analyzed using LC-MS/MS. Degree of protein binding (%) was calculated by the following equation:(6) Protein bound (%)=Concentrationdonor cell−Concentrationreceiver cell/Concentrationdonor cell×100

[2] = Blood-to-plasma ratio (Rb/p) study; format: in vitro ADME; conditions: balb/c mouse whole blood
Procedure: Freshly collected whole blood (400 µL) of balb/c mice was taken into an Eppendorf tube, and JNJ was spiked to obtain a final concentration at 5 µg mL^−1 following proper mixing. Blood and plasma samples were collected at 0, 30, and 60 min and processed using the previously described extraction procedure. Rb/p was then estimated by dividing the JNJ concentration in blood by the concentration obtained in plasma samples separated from blood using Equation (5), where CBlood is the drug concentration in blood and CPlasma is the drug concentration in plasma.(7) Rb/p=CBlood/CPlasma

[3] = Caco-2 permeability study; format: in vitro ADME, human; conditions: human, Caco-2, absorptive direction (apical to basal), read-out: apparent permeability (Papp), Caco-2
Procedure: (§1) Human colon carcinoma cells (Caco-2) were obtained from ATCC (American Type Culture Collection) (Manassas, VA, USA). Caco-2 cells were cultured in Dulbecco’s Modified Eagle’s Medium (DMEM), supplemented with 10% fetal bovine serum, 1% nonessential amino acids, 100 U mL^−1 penicillin, and 100 µg mL^−1 streptomycin. The cells were split upon reaching the 80–90% confluence to make them ready to seed. Afterwards, the cells were seeded at a density of 80,000 cells/well in a 12-well tissue culture plate with a 0.4 µm pore size, purchased from CELLTREAT Scientific Products (Pepperell, MA, USA), and incubated at 37 °C in an incubator with 5% CO2 conditions. […] The integrity of the monolayer was evaluated by measuring the transepithelial electrical resistance (TEER) value using EVOM2™ Epithelial Voltohmmeter purchased from World Precision Instruments Inc. (Sarasota, FL, USA).
(§2) JNJ was spiked at a final concentration of 10 µM to the apical side in a volume of 500 µL HBSS-HEPES (10 mM) buffer along with the positive control (propranolol and atenolol) in respective wells. […] After determined timepoints (0, 30, 60, 90, and 120 min), 100 µL aliquots were collected from the apical or basolateral sites, each time replacing with an equal volume of blank buffer. […]

[4] = system: Caco-2 cell monolayer; test: Caco-2 permeability study; format: in vitro ADME, human; conditions: absorptive direction (apical to basal), 10 µM
Procedure: as §1, §2

Plasma Protein Binding (%) ([1]; mouse plasma, RED, 5 h, 37 °C, n = 3): 97 ± 3%
fraction unbound at 5 h ([1]; RED, 5 h, 37 °C, n = 3, read-out: Plasma Protein Binding (%)): < 0.06
fraction unbound at 5 h ([1]; read-out: fraction unbound in plasma (fu,plasma)): 0.025
blood plasma ratio at 5 µg mL^−1 [2]: ~0.7
Papp A→B at 120 min, 10 µM [3]: 3.4 ± 0.4 ×10⁻⁶ cm/s
apparent permeability (Papp), Caco-2 [4]: 3 ± 0.4 (×10^−6) cm s^−1
Compound: Nc1nc2cc(CC[C@H]3C[C@@H](n4ccc5c(N)ncnc54)[C@H](O)[C@@H]3O)ccc2cc1Br [JNJ, JNJ-64619178]
